How the values were obtained:
Alternaria brassicae = test: In vivo test on Alternaria brassicae (leaf spot of crucifers); conditions: Alternaria brassicae; dose 330 ppm; radish plants sprayed 24 hours before contamination; grading 6 to 7 days after contamination vs control plants; read-out: protection (good (at least 50%) to total)
Description: In Vivo Test on Alternaria brassicae (Leaf Spot of crucifers)
(§1) The active ingredient tested is prepared by potter homogenisation in a concentrated suspension type formulation at 100 g/l. This suspension is then diluted with water to obtain the desired active material concentration.
Radish plants (Pernot variety) in starter cups, sown on a 50/50 peat soil-pozzolana substrate and grown at 18-20° C., are treated at the cotyledon stage by spraying with the aqueous suspension described above.
Plants, used as controls, are treated with an aqueous solution not containing the active material.
After 24 hours, the plants are contaminated by spraying them with an aqueous suspension of Alternaria brassicae spores (40,000 spores per cm^3). The spores are collected from a 12-13-day-old culture.
The contaminated radish plants are incubated for 6-7 days at about 18° C., under a humid atmosphere.
Grading is carried out 6 to 7 days after the contamination, in comparison with the control plants.

Pyrenophora teres = test: In vivo test on Pyrenophora teres (barley net blotch); conditions: Pyrenophora teres, 288 h; dose 330 ppm; barley plants sprayed 24 hours before contamination; grading 12 days after contamination vs control plants; read-out: protection (good (at least 50%) to total)
Description: In Vivo Test on Pyrenophora teres (Barley Net Blotch)
as §1
Barley plants (Express variety) in starter cups, sown on a 50/50 peat soil-pozzolana substrate and grown at 12° C., are treated at the 1-leaf stage (10 cm tall) by spraying with the aqueous suspension described above. Plants, used as controls, are treated with an aqueous solution not containing the active material.
After 24 hours, the plants are contaminated by spraying them with an aqueous suspension of Pyrenophora teres spores (12,000 spores per ml). The spores are collected from a 12-day-old culture The contaminated barley plants are incubated for 24 hours at about 20° C. and at 100% relative humidity, and then for 12 days at 80% relative humidity.

SMILES	pest or weed control at 330 ppm (Alternaria brassicae)	pest or weed control at 330 ppm (Pyrenophora teres)
Cc1ccoc1C(=O)NCCc1ncc(C(F)(F)F)cc1Cl [Compound A-3]	≥ 50%	
O=C(NCCc1ncc(C(F)(F)F)cc1Cl)c1cc(-c2ccc(Cl)cc2)oc1C(F)(F)F [Compound B-2]	≥ 50%	
O=C(NCCc1ncc(C(F)(F)F)cc1Cl)c1ccoc1 [Compound B-3]		≥ 50%
Cc1oc(-c2ccccc2)cc1C(=O)NCCc1ncc(C(F)(F)F)cc1Cl [Compound B-5]	≥ 50%	
O=C(NCCc1ncc(C(F)(F)F)cc1Cl)c1cc(-c2cccc(Cl)c2)oc1C(F)(F)F [Compound B-9]	≥ 50%	
O=C(NCCc1ncc(C(F)(F)F)cc1Cl)c1cc(-c2ccccc2)oc1C(F)(F)F [Compound B-10]	≥ 50%	
O=C(c1ccoc1I)N(CCc1ncc(C(F)(F)F)cc1Cl)C1CC1 [Compound B-15]		≥ 50%
Cc1cc(C(=O)NCCc2nc(C)c(Cl)cc2Cl)c(C)o1 [Compound B-16]	≥ 50%	≥ 50%
O=C(NCCc1ncc(C(F)(F)F)cc1Cl)c1sccc1Br [Compound C-5]	≥ 50%	≥ 50%
O=C(NCCc1ncc(C(F)(F)F)cc1Cl)c1ccc(-c2ccccn2)s1 [Compound C-6]	≥ 50%	
CS(=O)(=O)c1csc(C(=O)NCCc2ncc(C(F)(F)F)cc2Cl)c1Cl [Compound C-8]	≥ 50%	
O=C(NCCc1ccc(Cl)cn1)c1sccc1I [Compound C-17]		≥ 50%
O=C(NCCc1nc(Cl)ccc1Cl)c1sccc1I [Compound C-18]	≥ 50%	
O=C(c1sccc1I)N(CCc1ncc(C(F)(F)F)cc1Cl)C1CC1 [Compound C-20]		≥ 50%
Cc1nc(CCNC(=O)c2sccc2I)c(Cl)cc1Cl [Compound C-21]	≥ 50%	
O=C(NCCc1nc(F)c(Cl)cc1Cl)c1sccc1I [Compound C-22]		≥ 50%
O=C(NCCc1nc(F)c(Cl)cc1F)c1sccc1I [Compound C-23]	≥ 50%	≥ 50%
Cn1ccc(I)c1C(=O)NCCc1ncc(C(F)(F)F)cc1Cl [Compound F-3]	≥ 50%	≥ 50%
O=C(NCCc1ncc(C(F)(F)F)cc1Cl)c1ncoc1-c1ccccc1 [Compound G-1]	≥ 50%	≥ 50%
Cc1cc(C(=O)NCCc2ncc(C(F)(F)F)cc2Cl)nn1C(C)(C)C [Compound I-1]	≥ 50%	≥ 50%
O=C(NCCc1ncc(C(F)(F)F)cc1Cl)c1cnn(-c2ccccc2)c1C(F)(F)F [Compound J-4]	≥ 50%	
O=C(NCCc1ncc(C(F)(F)F)cc1Cl)c1cnn(-c2ccc(Cl)cc2)c1C(F)(F)F [Compound J-5]	≥ 50%	
Cn1ncc(C(=O)NCCc2ncc(C(F)(F)F)cc2Cl)c1Cl [Compound J-6]	≥ 50%	
Cc1c(C(=O)NCCc2ncc(C(F)(F)F)cc2Cl)cnn1-c1ccc(F)cc1 [Compound J-7]		≥ 50%
COc1ccc(-n2ncc(C(=O)NCCc3ncc(C(F)(F)F)cc3Cl)c2C)cc1 [Compound J-8]		≥ 50%
Cc1ccccc1-n1ncc(C(=O)NCCc2ncc(C(F)(F)F)cc2Cl)c1C [Compound J-10]		≥ 50%
CCCc1c(C(=O)NCCc2ncc(C(F)(F)F)cc2Cl)cnn1-c1ccc(Cl)cc1 [Compound J-12]	≥ 50%	

SMILES	pest or weed control at 330 ppm (Alternaria brassicae)	pest or weed control at 330 ppm (Pyrenophora teres)
O=C(NCCc1ncc(C(F)(F)F)cc1Cl)c1cnn(-c2ccc([N+](=O)[O-])cc2)c1C(F)(F)F [Compound J-13]	≥ 50%	
Cn1cc(C(=O)N(CCc2ncc(C(F)(F)F)cc2Cl)C2CC2)c(C(F)(F)F)n1 [Compound J-23]		≥ 50%
Cn1cc(C(=O)NCCc2ccc(C(F)(F)F)c(Cl)n2)c(C(F)(F)F)n1 [Compound J-24]	≥ 50%	≥ 50%
Cc1nc(CCNC(=O)c2cn(C)nc2C(F)(F)F)c(Cl)cc1Cl [Compound J-25]	≥ 50%	≥ 50%
Cn1cc(C(=O)NCCc2nc(F)c(Cl)cc2Cl)c(C(F)(F)F)n1 [Compound J-26]	≥ 50%	≥ 50%
Cn1cc(C(=O)NCCc2ccc(Cl)cn2)c(C(F)F)n1 [Compound J-36]	≥ 50%	≥ 50%
CC(C)ON=CCc1cnc(CCNC(=O)c2cn(C)nc2C(F)F)c(Cl)c1 [Compound J-38]	≥ 50%	
Cc1nn(C)c(F)c1C(=O)NCCc1ncc(Cl)cc1F [Compound J-49]	≥ 50%	≥ 50%
Cc1nn(C)c(F)c1C(=O)NCCc1nc(Cl)c(Cl)cc1Cl [Compound J-50]	≥ 50%	≥ 50%
Cc1nn(C)c(F)c1C(=O)N(CCc1ncc(C(F)(F)F)cc1Cl)C1CC1 [Compound J-52]	≥ 50%	≥ 50%
Cn1cc(C(=O)NCCc2ncc(C(F)(F)F)cc2Cl)c(C(F)(F)F)n1 [Compound J-54]		≥ 50%
CC(C)(C)c1cc(C(=O)NCCc2ncc(C(F)(F)F)cc2Cl)n(Cc2ccccc2)n1 [Compound K-3]	≥ 50%	
O=C(NCCc1ncc(C(F)(F)F)cc1Cl)c1ccnn1-c1ccccc1 [Compound K-5]	≥ 50%	
CCn1nc(C)c(Br)c1C(=O)NCCc1ncc(C(F)(F)F)cc1Cl [Compound K-6]	≥ 50%	≥ 50%
Cc1noc(C)c1C(=O)NCCc1ncc(C(F)(F)F)cc1Cl [Compound M-2]	≥ 50%	
Cc1onc(-c2ccccc2Cl)c1C(=O)NCCc1ncc(C(F)(F)F)cc1Cl [Compound M-4]	≥ 50%	≥ 50%
O=C(NCCc1ncc(C(F)(F)F)cc1Cl)c1ccno1 [Compound N-1]	≥ 50%	
Cc1nn(-c2ccccc2)nc1C(=O)NCCc1ncc(C(F)(F)F)cc1Cl [Compound O-1]	≥ 50%	
Cc1nnsc1C(=O)NCCc1ncc(C(F)(F)F)cc1Cl [Compound P-1]		≥ 50%
O=C(NCCc1ncc(C(F)(F)F)cc1Cl)c1ncc(C(F)(F)F)cc1Cl [Compound Q-1]	≥ 50%	
O=C(NCCc1ncc(C(F)(F)F)cc1Cl)c1nc(Cl)ccc1Cl [Compound Q-2]	≥ 50%	
O=C(NCCc1ncc(C(F)(F)F)cc1Cl)c1cccnc1 [Compound R-5]	≥ 50%	
O=C(NCCc1ncc(C(F)(F)F)cc1Cl)c1cccnc1Sc1ccccc1 [Compound R-6]	≥ 50%	
O=C(NCCc1ncc(C(F)(F)F)cc1Cl)c1cccnc1Oc1ccc(Cl)cc1 [Compound R-7]	≥ 50%	
Cc1nc(C(F)(F)F)ccc1C(=O)NCCc1ncc(C(F)(F)F)cc1Cl [Compound R-15]	≥ 50%	≥ 50%
Cc1cc(C(=O)NCCc2ncc(C(F)(F)F)cc2Cl)cc(Cl)n1 [Compound S-2]	≥ 50%	≥ 50%
O=C(NCCc1ncc(C(F)(F)F)cc1Cl)c1ccnc(Cl)c1 [Compound S-5]	≥ 50%	

Reference: patent publication US7754741B2, “Pyridine derivatives as fungicidal compounds” (Bayer Cropscience S.A., priority 2003, dated 2010)
